Laboratory results taken from patent US20070166547A1, “Use of a layer consisting of hydrophobic linear, or two-dimensional polycyclic aromatics as a barrier layer or an encapsulation and electric components constructed with a layer of this type and comprising organic polymers” (priority 2003, published 2007).
Read-outs that look alike come from different tables or passages of the source.

Legend:
[1] = rat, in vivo
Method: The experiments were conducted on inbred rats. The experimental animals were selected in groups by a method of random sampling taking into account the body mass as a determining index; 24 males or 24 females for one preparation from compounds 2, 15, 23, 34, 37 investigated in one dose.
Two doses of preparations used in the experiments: 50 mg/kg and 500 mg/kg. Before the administration, the suppositories were softened by heating in a glass water bath at a temperature of 38-39° C., the soft mass was collected in tuberculin syringe in a volume of 1 ml, a needle with oliva was attached to the syringe, and the preparatory mass was introduced into the rectum of the animal for a depth of 1.5-2.0 cm. The animals of the control group were administered with sterile medical liquid paraffin in a volume corresponding to the volume of the investigated suppository. A complete course of administration of drugs to the animals was two months. A complex of laboratory diagnostic investigations was carried out one month after the beginning of the administration of the preparation to the animal—in a middle of the course (8 animals), two months after ending the course (8 animals) and three months after ending the recovery period of one month (8 animals). The mass of the body of the rats in the first month of administration of the preparation was determined weekly, and then once in two weeks. On the basis of the dynamics of an index of the mass of the animal body, the volume of preparation being administered was corrected taking into account the test dose.

[2] = tested on: embyronic fibroblasts of mouse NIH-3T3; assay: Endocellular pHi of fibroblasts by microspectrofluorimetry (FDA, BCECF-AM); format: cell-based; conditions: for rise of pHi: fibroblasts in an attached spread state; for increase of pHi: 20 minutes
Outline: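 Mouse NIH-3T3 fibroblasts loaded 5 min at 37° C with 5.0 mkM FDA or 2.0 mkM BCECF-AM; medium with 5.0 mM HEPES and 15.0 mM bicarbonate. Excitation 490 nm, emission ratio 535/570 nm averaged over 40-60 cells at 37° C. pHi calibrated by nigericin in high-K+ buffers, pH 6.2-7.6.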

## Nc1cccc2c(=O)[nH][nH]c(=O)c12.[Na] [Compound 15, sodium salt of 5-amino-benzo[d]-3H-pyridazine-1,4-dione]
[1]; 50 mg/kg
  Bilirubin (index of urine): <5 Mkmol/l
  Glucose (index of urine): <6 mmol/L
  Ketone bodies (index of urine): <1 mmol/L
  Potassium (index of urine): 5.28 ± 1.5 g/L
  Protein (index of urine): 0.71 ± 0.274 g/L
  Sodium (index of urine): 1.2 ± 0.4 g/L
  Urea (index of urine): 413 ± 128 mmol/L
  Urobilinogen (index of urine): <17 Mkmol/l
  pH (index of urine): 6.3 ± 0.4
[1]; 500 mg/kg
  Bilirubin (index of urine): <5 Mkmol/l
  Glucose (index of urine): <6 mmol/L
  Ketone bodies (index of urine): <1 mmol/L
  Potassium (index of urine): 6.13 ± 1.6 g/L
  Protein (index of urine): 0.87 ± 0.24 g/L
  Sodium (index of urine): 0.64 ± 0.4 g/L
  Urea (index of urine): 485 ± 131 mmol/L
  Urobilinogen (index of urine): <17 Mkmol/l
  pH (index of urine): 6.2 ± 0.3
[2]; 2.0 mkg/ml
  rise of pHi: 0.10 unit pHi
[2]; 20.0 mkg/ml
  rise of pHi: 0.07 unit pHi
[2]; medium with 10.0% blood serum, 0.02 mkg/ml, suspension
  increase of pHi: do not initiate a change of pH
[2]; medium with 10.0% blood serum, 0.2 mkg/ml, suspension
  increase of pHi: 0.1 unit pH
[2]; medium with 10.0% blood serum, 2.0 mkg/ml, suspension
  increase of pHi: 0.12 unit pH
[2]; medium with 10.0% blood serum, 20.0 mkg/ml, suspension
  increase of pHi: do not initiate a change of pH
[2]; medium without blood serum, 0.02 mkg/ml
  increase of pHi: no effect was found
[2]; medium without blood serum, 0.2 mkg/ml
  increase of pHi: no effect was found
[2]; medium without blood serum, 2.0 mkg/ml
  increase of pHi: 0.08 unit pHi
[2]; medium without blood serum, 20.0 mkg/ml
  increase of pHi: 0.08 unit pHi
[2]; medium without blood serum, 200 mkg/ml
  increase of pHi: no effect was found
[2]; medium without blood serum, 1000 mkg/ml
  increase of pHi: no effect was found
